Source: patent US7696129B2, “Substituted aromatic amide derivative, intermediate thereof, agrohorticultural insecticide containing thereof and method for the use thereof” (Nihon Nohyaku Co., Ltd., priority 2001, dated 2010)

Tests used:
Format in all cases: in vivo
[1] = tested on: Diamond Back Moth (Plutella xylostella); assay: Test Example 1: insecticidal effect on diamond back moth, immersion of Chinese cabbage seedling with eggs; conditions: seedling with eggs immersed about 30 seconds, 25° C., six days after the immersion; for Test Example 1 (insecticidal effect, mortality criterion): 50 ppm
Source text: Insecticidal Effect on Diamond Back Moth (Plutella xylostella)
Adult diamond back moths were released and allowed to oviposit on a Chinese cabbage seedling. Two days after the release, the seedling having the eggs deposited thereon was immersed for about 30 seconds in a liquid chemical prepared by diluting a preparation containing each compound listed in Tables 4 to 9 as an active ingredient to adjust the concentration to 50 ppm. After air-dryness, it was allowed to stand in a room thermostatted at 25° C. Six days after the immersion, the hatched insects were counted. The mortality was calculated according to the following equation and the insecticidal effect was judged according to the criterion shown below. The test was carried out with triplicate groups of 10 insects.

[2] = tested on: Common Cutworm (Spodoptera litura); assay: Test Example 2: insecticidal effect on common cutworm, cabbage leaf immersion; conditions: cabbage leaf immersed about 30 seconds, second-instar larvae, 25° C., eight days after the inoculation; for Test Example 2 (insecticidal effect, mortality criterion): 50 ppm
Source text: Insecticidal Effect on Common Cutworm (Spodoptera litura)
A piece of cabbage leaf (cultivar; Shikidori) was immersed for about 30 seconds in a liquid chemical prepared by diluting a preparation containing each compound listed in Tables 4 to 9 as an active ingredient to adjust the concentration to 50 ppm. After air-dryness, it was placed in a plastic Petri dish with a diameter of 9 cm and inoculated with second-instar larvae of common cutworm, after which the dish was closed and then allowed to stand in a room thermostatted at 25° C. Eight days after the inoculation, the dead and alive were counted. The mortality was calculated according to the following equation and the insecticidal effect was judged according to the criterion shown in Test Example 1. The test was carried out with triplicate groups of 10 insects.

[3] = tested on: Smaller Tea Tortrix (Adxophyes sp.); assay: Test Example 3: insecticidal effect on smaller tea tortrix, tea leaf immersion; conditions: 50 ppm, tea leaves immersed about 30 seconds, larvae, 25° C., humidity 70%, eight days after the inoculation
Procedure: Insecticidal Effect on Smaller Tea Tortrix (Adxophyes sp.)
Tea leaves were immersed for about 30 seconds in a liquid chemical prepared by diluting a preparation containing each compound listed in Tables 1 to 3 as an active ingredient to adjust the concentration to 50 ppm. After air-dryness, the tea leaves were placed in a plastic Petri dish with a diameter of 9 cm and inoculated with larvae of smaller tea tortrix, after which the dish was allowed to stand in a room thermostatted at 25° C. and having a humidity of 70%. Eight days after the inoculation, the dead and alive were counted and the insecticidal effect was judged according to the criterion shown in Test Example 1. The test was carried out with triplicate groups of 10 insects.

Structure (SMILES)	Test Example 1 (insecticidal effect, mortality criterion) [1]	Test Example 2 (insecticidal effect, mortality criterion) [2]	Test Example 3 (insecticidal effect, mortality criterion) [3]	mortality at 50 ppm ([1]; Plutella xylostella, 144 h, read-out: Test Example 1 (insecticidal effect, mortality criterion))	mortality at 50 ppm ([2]; Spodoptera litura, 192 h, read-out: Test Example 2 (insecticidal effect, mortality criterion))
CSCC(C)(C)NC(=O)c1c(I)cccc1C(=O)Nc1ccc(C(C(F)(F)F)C(F)(F)F)c(F)c1C [5-61]	A (Mortality 100%)	A (Mortality 100%)	A (Mortality 100%)	–	–
CSCC(C)(C)NC(=O)c1c(I)cccc1C(=O)Nc1ccc(C(C(F)(F)F)C(F)(F)F)nc1Cl [Compound No. 8-4, N^2-(1,1-dimethyl-2-methylthioethyl)-3-iodo-N^1-{2-chloro-6-[2,2,2-trifluoro-1-(trifluoromethyl)ethyl]pyridin-3-yl}phthalamide]	–	–	A (Mortality 100%)	100%	100%
CSCC(C)(C)NC(=O)c1c(I)cccc1C(=O)Nc1ccc(C(C(F)(F)F)C(F)(F)F)cc1I [5-55]	A (Mortality 100%)	A (Mortality 100%)	A (Mortality 100%)	–	–
CSCC1(C)COC(c2c(I)cccc2C(=O)Nc2ccc(C(C(F)(F)F)C(F)(F)F)cc2C)=N1 (stereo not drawn) [10-2]	A (Mortality 100%)	E (Mortality 49% or less)	E (Mortality 49% or less)	–	–
CSCC(C)(C)NC(=O)c1c(I)cccc1C(=O)Nc1ccc(C(C(F)(F)F)C(F)(F)C(F)(F)F)cc1C (stereo not drawn) [5-71]	A (Mortality 100%)	A (Mortality 100%)	A (Mortality 100%)	–	–
CON=CC(C)(C)NC(=O)c1c(Br)cccc1C(=O)Nc1ccc(C(C(F)(F)F)C(F)(F)F)cc1C [5-20]	A (Mortality 100%)	A (Mortality 100%)	A (Mortality 100%)	–	–
Cc1cc(C(C(F)(F)F)C(F)(F)F)ccc1N(C)C(=O)c1cccc(I)c1C(=O)NC(C)C [6-2]	A (Mortality 100%)	E (Mortality 49% or less)	A (Mortality 100%)	–	–
C[S+]([O-])CC(C)(C)NC(=O)c1c(I)cccc1C(=O)Nc1ccc(C(C(F)(F)F)C(F)(F)F)nc1 (stereo not drawn) [8-2]	A (Mortality 100%)	E (Mortality 49% or less)	E (Mortality 49% or less)	–	–
CC(=O)NCC(C)(C)NC(=O)c1c(I)cccc1C(=O)Nc1ccc(C(C(F)(F)F)C(F)(F)F)cc1C [5-40]	A (Mortality 100%)	A (Mortality 100%)	A (Mortality 100%)	–	–
C[S+]([O-])CC(C)(C)NC(=O)c1c(I)cccc1C(=O)Nc1ccc(C(C(F)(F)F)C(F)(F)F)cc1I (stereo not drawn) [5-56]	A (Mortality 100%)	C (Mortality 89-80%)	A (Mortality 100%)	–	–
CCNC(=O)OCC(C)NC(=O)c1c(I)cccc1C(=O)Nc1ccc(C(C(F)(F)F)C(F)(F)F)nc1C (stereo not drawn) [8-26]	A (Mortality 100%)	D (Mortality 79-50%)	A (Mortality 100%)	–	–
CSCC(C)NC(=O)c1c(I)cccc1C(=O)Nc1ccc(C(C(F)(F)F)C(F)(F)F)nc1C (stereo not drawn) [8-14]	A (Mortality 100%)	A (Mortality 100%)	A (Mortality 100%)	–	–
Cc1cc(C(C(F)(F)F)C(F)(F)F)ccc1NC(=O)c1cccc(I)c1C(=O)NC(C)(C)C [5-22]	A (Mortality 100%)	C (Mortality 89-80%)	A (Mortality 100%)	–	–
Cc1cc(C(C(F)(F)F)C(F)(F)F)ccc1NC(=O)c1cccc(I)c1C(=O)NC(C)(C)CO [5-27]	A (Mortality 100%)	E (Mortality 49% or less)	E (Mortality 49% or less)	–	–
Cc1nc(C(C(F)(F)F)C(F)(F)F)ccc1NC(=O)c1cccc(I)c1C(=O)NC(C)COC(=O)NCc1ccccc1 (stereo not drawn) [8-27]	A (Mortality 100%)	E (Mortality 49% or less)	E (Mortality 49% or less)	–	–
CCc1cc(C(C(F)(F)F)C(F)(F)F)ccc1NC(=O)c1cccc(I)c1C(=O)NC(C)(C)CSC [5-47]	A (Mortality 100%)	A (Mortality 100%)	A (Mortality 100%)	–	–
CSCC(C)(C)NC(=O)c1c(I)cccc1C(=O)Nc1ccc(CC(F)(F)C(F)(F)F)cc1F [5-6]	A (Mortality 100%)	A (Mortality 100%)	A (Mortality 100%)	–	–
CSCC(C)(C)NC(=O)c1c(I)cccc1C(=O)N(C)c1ccc(C(C(F)(F)F)C(F)(F)F)cc1C [6-3]	A (Mortality 100%)	A (Mortality 100%)	A (Mortality 100%)	–	–
Cc1cc(C(C(F)(F)F)C(F)(F)F)ccc1NC(=O)c1cccc(I)c1C(=O)NC(C)COC(=O)N(C)Cc1ccccc1 (stereo not drawn) [5-31]	A (Mortality 100%)	A (Mortality 100%)	A (Mortality 100%)	–	–
Cc1nc(C(C(F)(F)F)C(F)(F)F)ccc1NC(=O)c1cccc(I)c1C(=O)NC(C)(C)C[S+](C)[O-] (stereo not drawn) [8-12]	A (Mortality 100%)	A (Mortality 100%)	A (Mortality 100%)	–	–
Cc1cc(C(C(F)(F)F)C(F)(F)F)ccc1NC(=O)c1cccc(I)c1C(=O)NC(C)C [5-21]	A (Mortality 100%)	A (Mortality 100%)	A (Mortality 100%)	–	–
CSCC(C)(C)NC(=O)c1c(I)cccc1C(=O)Nc1ccc(CC(F)(F)C(F)(F)C(F)(F)F)cc1C [5-7]	A (Mortality 100%)	A (Mortality 100%)	A (Mortality 100%)	–	–
CSCC(C)(C)NC(=O)c1c(F)cccc1C(=O)Nc1ccc(C(C(F)(F)F)C(F)(F)F)cc1C [5-16]	A (Mortality 100%)	A (Mortality 100%)	A (Mortality 100%)	–	–
Cc1c(NC(=O)c2cccc(I)c2C(=O)NC(C)C)ccc(C(C(F)(F)F)C(F)(F)F)c1F [5-60]	A (Mortality 100%)	A (Mortality 100%)	A (Mortality 100%)	–	–
